In assay [1] the test system is Phosphorylated Ribosomal Protein S6 (RPS6). Nature of the assay: THP-1 RPS6 ELISA Assay. Conditions: THP-1 cells, read-out: PI3Kγ_THP1_RPS6_ELISA IC50. The assay is classed as cell-based, Human. On the procedure: To measure the Phosphorylated Ribosomal Protein S6 (RPS6) in cell lysates, THP-1 cells (Human Acute Monocytic Leukemia) are purchased from ATCC (Manassas, Va.) and maintained in RPMI with 10% FBS (Gibco/Life Technologies, Carlsbad, Calif.). For the assay, THP-1 cells are serum starved overnight in RPMI, then plated in RPMI (2×10^5 cells/well in 90 μL) into 96-well flat-bottom tissue culture treated plates (Corning, Corning, N.Y.), in the presence or absence of a concentration range of test compounds. Covered plates are incubated for 2 hours at 37° C., 5% CO2 then treated with or without 10 nM MCP-1 (MYBioSource, San Diego, Calif.) for 15 minutes at 37° C., 5% CO2. Plates are centrifuged at 1600 RPM and supernatants are removed. Cells are lysed in Lysis Buffer (Cell Signaling, Danvers, Mass.) with Protease Inhibitor (Calbiochem/EMD, Germany), PMSF (Sigma, St Louis Mo.), HALTS (Thermo Fisher, Rockford, Ill.) for 30 min on wet ice. Cell lysates are frozen at −80° C. before testing. The lysates are tested in the Human/Mouse/Rat Phospho-RPS6 ELISA (R&D Systems, Inc. Minn, Minn.). The plate is measured using a microplate reader (SpectraMax M5 —Molecular Devices, LLC Sunnyvale, Calif.) set to 450 nm with a wavelength correction of 540. IC50 determination is performed by fitting the curve of inhibitor percent inhibition versus the log of the inhibitor concentration using the GraphPad Prism 5.0 software.

Assay [2] addresses PI3Kδ (p110δ/p85α) Recombinant Human Protein (Homo sapiens (Human), UniProt O00329). Put plainly: PI3Kδ Scintillation Proximity Assay. The assay is classed as biochemical. The method, boiled down:
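Recombinant human p110δ/p85α (3.4 nM) phosphorylates 20 μM di-octanoyl PIP2 using 2 μM ATP spiked with [γ-33P]ATP, 120 min, room temperature, pH 6.7, 2% DMSO. Product measured by scintillation proximity; IC50 from dose-response fit.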
Background: SPA uses beads or plates that emit light when radiolabelled molecules are held near them.

Assay [3] deals with PI3Kγ (p110γ) Recombinant Human Protein (Homo sapiens (Human), UniProt P48736). Nature of the assay: PI3K-γ Scintillation Proximity Assay. The assay is classed as biochemical. Conditions: read-out: PI3Kγ IC50. The method, boiled down:
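Recombinant human p110γ assayed at room temperature in 20 mM MOPS pH 6.7, 10 mM MgCl2, 5 mM DTT, 0.03% CHAPS, 2% DMSO, with 20 μM PIP2 and 2 μM ATP plus [γ-33P]ATP. Product captured on WGA SPA beads overnight and counted; IC50 fitted from % of solvent-control activity versus log inhibitor concentration.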

pIC50: −log10 of the molar value. Structures can show the parent of a compound that is named as a salt. Where two headings read alike, the source gives them in different places. Some results are limits rather than exact numbers.

PI3Kγ (p110γ) Recombinant Human Protein, sequence (P48736 whole entry): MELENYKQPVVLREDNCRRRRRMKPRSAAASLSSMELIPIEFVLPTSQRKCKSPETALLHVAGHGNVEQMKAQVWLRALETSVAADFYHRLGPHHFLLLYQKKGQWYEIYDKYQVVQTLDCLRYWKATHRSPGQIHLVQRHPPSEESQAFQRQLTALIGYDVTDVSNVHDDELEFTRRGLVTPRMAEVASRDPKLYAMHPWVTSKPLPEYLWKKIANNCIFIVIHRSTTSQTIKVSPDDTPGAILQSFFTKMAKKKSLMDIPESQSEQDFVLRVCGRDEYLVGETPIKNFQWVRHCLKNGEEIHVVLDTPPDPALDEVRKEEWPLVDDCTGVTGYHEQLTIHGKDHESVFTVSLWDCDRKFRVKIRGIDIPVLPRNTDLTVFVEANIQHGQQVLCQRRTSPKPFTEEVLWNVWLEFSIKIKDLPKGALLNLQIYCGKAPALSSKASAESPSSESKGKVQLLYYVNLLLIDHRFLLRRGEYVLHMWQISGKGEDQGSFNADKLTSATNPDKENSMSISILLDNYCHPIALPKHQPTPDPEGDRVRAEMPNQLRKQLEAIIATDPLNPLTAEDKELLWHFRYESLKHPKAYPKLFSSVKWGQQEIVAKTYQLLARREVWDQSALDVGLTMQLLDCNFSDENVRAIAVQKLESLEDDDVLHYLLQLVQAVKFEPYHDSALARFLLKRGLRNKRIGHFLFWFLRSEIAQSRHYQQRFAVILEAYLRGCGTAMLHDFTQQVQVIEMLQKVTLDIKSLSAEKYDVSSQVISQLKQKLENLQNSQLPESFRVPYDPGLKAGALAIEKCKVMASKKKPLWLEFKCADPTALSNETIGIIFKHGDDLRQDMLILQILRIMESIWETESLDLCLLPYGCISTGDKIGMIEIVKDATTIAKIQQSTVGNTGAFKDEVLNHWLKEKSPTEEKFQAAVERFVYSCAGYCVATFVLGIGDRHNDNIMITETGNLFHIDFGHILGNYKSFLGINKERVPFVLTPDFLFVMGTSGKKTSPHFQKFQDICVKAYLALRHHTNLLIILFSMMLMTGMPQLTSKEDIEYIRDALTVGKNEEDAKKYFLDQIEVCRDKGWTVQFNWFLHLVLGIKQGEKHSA
PI3Kδ (p110δ/p85α) Recombinant Human Protein, sequence (O00329 whole entry): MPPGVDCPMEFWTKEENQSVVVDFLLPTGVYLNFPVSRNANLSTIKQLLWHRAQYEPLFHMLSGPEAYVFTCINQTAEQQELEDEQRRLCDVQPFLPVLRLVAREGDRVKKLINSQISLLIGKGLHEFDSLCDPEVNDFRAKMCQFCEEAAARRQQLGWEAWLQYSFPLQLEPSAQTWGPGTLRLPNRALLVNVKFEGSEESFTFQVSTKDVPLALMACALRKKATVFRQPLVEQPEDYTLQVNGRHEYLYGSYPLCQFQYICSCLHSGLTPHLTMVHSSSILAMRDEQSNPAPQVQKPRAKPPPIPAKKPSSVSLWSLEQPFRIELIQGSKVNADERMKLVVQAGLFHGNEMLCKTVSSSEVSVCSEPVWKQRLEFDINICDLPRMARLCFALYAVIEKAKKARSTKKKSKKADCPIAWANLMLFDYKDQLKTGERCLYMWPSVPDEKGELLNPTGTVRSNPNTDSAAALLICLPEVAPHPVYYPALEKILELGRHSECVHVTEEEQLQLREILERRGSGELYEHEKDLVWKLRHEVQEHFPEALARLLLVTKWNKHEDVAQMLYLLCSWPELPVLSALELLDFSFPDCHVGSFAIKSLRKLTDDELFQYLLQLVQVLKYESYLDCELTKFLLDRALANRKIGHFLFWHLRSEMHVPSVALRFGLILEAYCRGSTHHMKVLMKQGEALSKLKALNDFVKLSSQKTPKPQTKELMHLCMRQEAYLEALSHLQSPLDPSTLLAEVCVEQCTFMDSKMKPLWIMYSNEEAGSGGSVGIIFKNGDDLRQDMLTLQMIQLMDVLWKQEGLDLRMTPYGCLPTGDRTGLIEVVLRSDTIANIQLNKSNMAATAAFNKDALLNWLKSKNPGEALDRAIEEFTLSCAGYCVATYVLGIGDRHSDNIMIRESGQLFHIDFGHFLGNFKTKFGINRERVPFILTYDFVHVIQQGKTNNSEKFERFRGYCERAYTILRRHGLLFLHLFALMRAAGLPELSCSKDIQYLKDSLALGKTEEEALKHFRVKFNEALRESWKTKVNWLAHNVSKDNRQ
PI3Kδ (p110δ/p85α) Recombinant Human Protein, sequence (P27986 whole entry partner): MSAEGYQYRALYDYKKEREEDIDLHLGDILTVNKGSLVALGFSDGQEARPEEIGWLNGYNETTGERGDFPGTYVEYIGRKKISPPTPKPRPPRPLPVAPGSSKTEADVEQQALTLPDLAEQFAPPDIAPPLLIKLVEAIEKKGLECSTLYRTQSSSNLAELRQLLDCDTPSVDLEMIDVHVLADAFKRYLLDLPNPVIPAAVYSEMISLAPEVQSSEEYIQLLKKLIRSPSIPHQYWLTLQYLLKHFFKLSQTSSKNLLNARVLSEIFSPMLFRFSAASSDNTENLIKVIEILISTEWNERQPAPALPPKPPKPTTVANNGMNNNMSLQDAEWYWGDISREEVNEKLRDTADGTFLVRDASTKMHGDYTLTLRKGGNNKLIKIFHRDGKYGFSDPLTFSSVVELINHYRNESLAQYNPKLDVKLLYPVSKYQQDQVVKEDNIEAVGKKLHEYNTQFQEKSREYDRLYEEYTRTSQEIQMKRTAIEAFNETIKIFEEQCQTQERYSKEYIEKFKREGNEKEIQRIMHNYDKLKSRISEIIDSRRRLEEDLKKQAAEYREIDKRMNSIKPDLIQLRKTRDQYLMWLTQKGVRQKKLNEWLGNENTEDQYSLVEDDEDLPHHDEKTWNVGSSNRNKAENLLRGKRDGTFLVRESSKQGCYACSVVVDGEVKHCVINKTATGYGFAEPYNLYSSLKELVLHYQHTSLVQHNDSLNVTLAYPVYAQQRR

The pIC50 is the IC50 on a negative log10 scale, so that one unit is a factor of ten. Turning to `Cc1ccc(S(=O)(=O)NCC2(F)COC2)cc1-c1cnc2c(N)nc(C(F)(F)F)nn12` [Example 315, 3-(4-Amino-2-(trifluoromethyl)imidazo[1,2-f][1,2,4]triazin-7-yl)-N-((3-fluorooxetan-3-yl)methyl)-4-methylbenzenesulfonamide trifluoroacetate salt], the pIC50 in assay [1], in assay [2] and in assay [3] was greater than 7.00 throughout.

For the compound `Cc1ccc(S(=O)(=O)NC23CCC(O)(CC2)C3)cc1-c1cnc2c(N)ncnn12` [Example 442, 3-(4-Aminoimidazo[1,2-f][1,2,4]triazin-7-yl)-N-((1s,4s)-4-hydroxybicyclo[2.2.1]heptan-1-yl)-4-methylbenzenesulfonamide trifluoroacetate salt], the pIC50 in assay [1] (Homo sapiens) was 6.30 to 7.00; in assay [2], 5.70 to 6.30; in assay [3] it was greater than 7.00.

With `Cc1ccc(S(=O)(=O)NCC(C)(C)O)cc1-c1cnc2c(NCc3ccccc3)nc(C(F)(F)F)cn12` [Example 519, 3-(8-(Benzylamino)-6-(trifluoromethyl)imidazo[1,2-a]pyrazin-3-yl)-N-(2-hydroxy-2-methylpropyl)-4-methylbenzenesulfonamide], the pIC50 in assay [1] (Homo sapiens) was less than 6.00; in assay [2] it was greater than 7.00; in assay [3], 6.30 to 7.00.

For the compound `[2H]C([2H])([2H])c1ccc(S(=O)(=O)NC23CCC(O)(C2)C3)cc1-c1cnc2c(N)nc(C)cn12` [Example 384, 3-(8-Amino-6-methylimidazo[1,2-a]pyrazin-3-yl)-N-(4-hydroxybicyclo[2.1.1]hexan-1-yl)-4-(methyl-d3)benzenesulfonamide], the pIC50 was 6.00 to 6.30 in assay [1] (Homo sapiens), greater than 7.00 in assay [2] and greater than 7.00 in assay [3].

For `Cc1ccc(S(=O)(=O)NC23CCC(C#N)(C2)C3)cc1-c1cnc2c(N)nc(C(F)(F)F)cn12` [Example 281, 3-(8-Amino-6-(trifluoromethyl)imidazo[1,2-a]pyrazin-3-yl)-N-(4-cyanobicyclo[2.1.1]hexan-1-yl)-4-methylbenzenesulfonamide trifluoroacetate salt], the results for the negative logarithm of the IC50 (pIC50) in assay [1] (Homo sapiens), in assay [2] and in assay [3] were 6.30 to 7.00, 6.30 to 7.00 and greater than 7.00, respectively.

Consider `Cc1ccc(S(=O)(=O)NC23CC(C(C)(C)O)(C2)C3)cc1-c1cnc2c(N)ncnn12` [Example 93, 3-(4-Aminoimidazo[1,2-f][1,2,4]triazin-7-yl)-N-(3-(2-hydroxypropan-2-yl)bicyclo[1.1.1]pentan-1-yl)-4-methylbenzenesulfonamide trifluoroacetate slt], for which the pIC50 in assay [1] is 6.30 to 7.00; in assay [2], 6.30 to 7.00; in assay [3] it was greater than 7.00.

As to `Nc1nc(C(F)(F)F)cn2c(-c3ccc(F)c(S(=O)(=O)NC45CCC(CO)(C4)C5)c3)cnc12` [Example 398, 5-(8-Amino-6-(trifluoromethyl)imidazo[1,2-a]pyrazin-3-yl)-2-fluoro-N-(4-(hydroxymethyl)bicyclo[2.1.1]hexan-1-yl)benzenesulfonamide trifluoroacetate salt], the pIC50 in assay [1] (Homo sapiens) is 6.00 to 6.30; in assay [2] it was 6.30 to 7.00; in assay [3], greater than 7.00.

For the compound `Cc1ccc(S(=O)(=O)N[C@H]2C[C@H](CO)C2)cc1-c1cnc2c(N)ncnn12` [Example 60, 3-(4-Aminoimidazo[1,2-f][1,2,4]triazin-7-yl)-N-[trans-3-(hydroxymethyl)cyclobutyl]-4-methylbenzenesulfonamide], the pIC50 in assay [1] is 6.30 to 7.00; in assay [2], 6.30 to 7.00; in assay [3], greater than 7.00.

`Cc1ccc(S(=O)(=O)N2C[C@@H](C)C[C@@H](N)C2)cc1-c1cnc2c(N)nc(C(F)(F)F)cn12` [Example 306, 3-(5-(((3R,5S)-3-amino-5-methylpiperidin-1-yl)sulfonyl)-2-methylphenyl)-6-(trifluoromethyl)imidazo[1,2-a]pyrazin-8-amine]: the pIC50 in assay [1] (Homo sapiens), in assay [2] and in assay [3] was greater than 7.00 throughout.

As to `Cc1ccc(S(=O)(=O)NC23CCC(C(O)C(F)(F)F)(CC2)OC3)cc1-c1cnc2c(N)ncnn12` (racemic) [Example 437, 3-(4-Aminoimidazo[1,2-f][1,2,4]triazin-7-yl)-4-methyl-N-(1-(2,2,2-trifluoro-1-hydroxyethyl)-2-oxabicyclo[2.2.2]octan-4-yl)benzenesulfonamide trifluoroacetate salt (racemic)], the figures for the pIC50 in assay [1] (Homo sapiens), in assay [2] and in assay [3] were 6.30 to 7.00, 6.30 to 7.00 and greater than 7.00, respectively.

Turning to `Cc1ccc(S(N)(=O)=O)cc1-c1cnc2c(N)nc(C(F)(F)F)nn12` [Example 336, 3-(4-Amino-2-(trifluoromethyl)imidazo[1,2-f][1,2,4]triazin-7-yl)-4-methylbenzenesulfonamide trifluoroacetate salt], the pIC50 in assay [1] was 6.30 to 7.00; in assay [2] it was 6.30 to 7.00; in assay [3] it was greater than 7.00.

For `Cc1nc(N)c2ncc(-c3cc(S(=O)(=O)NCC(O)C(F)(F)F)ccc3C)n2n1` (single isomer, unassigned) [Example 266, 3-(4-Amino-2-methylimidazo[1,2-f][1,2,4]triazin-7-yl)-4-methyl-N-(3,3,3-trifluoro-2-hydroxypropyl)benzenesulfonamide (single enantiomer isolated)], the values for the pIC50 in assay [1], in assay [2] and in assay [3] were 6.30 to 7.00, 6.30 to 7.00 and greater than 7.00, respectively.

As for `O=C(O)C(F)(F)F.[2H]C([2H])([2H])c1ccc(S(=O)(=O)NC23CCC(C#N)(CC2)C3)cc1-c1cnc2c(N)ncnn12` [Example 362, 3-(4-Aminoimidazo[2,1-f][1,2,4]triazin-7-yl)-N-(4-cyanobicyclo[2.2.1]heptan-1-yl)-4-(methyl-d3)benzenesulfonamide trifluoroacetate salt], the pIC50 in assay [1] (Homo sapiens) is greater than 7.00; in assay [2], 6.30 to 7.00; in assay [3] it was greater than 7.00.

`Cc1ccc(S(=O)(=O)NC23CC(CF)(C2)C3)cc1-c1cnc2c(N)nc(C(F)(F)F)nn12` [Example 331, 3-(4-Amino-2-(trifluoromethyl)imidazo[1,2-f][1,2,4]triazin-7-yl)-N-(3-(fluoromethyl)bicyclo[1.1.1]pentan-1-yl)-4-methylbenzenesulfonamide trifluoroacetate salt]: the pIC50 is 6.30 to 7.00 in assay [1], 6.30 to 7.00 in assay [2] and greater than 7.00 in assay [3].

For `Cc1ccc(S(=O)(=O)N[C@H]2CC[C@H](N)CC2)cc1-c1cnc2c(N)ncnn12` [Example 73, bis-hydrochloride], the pIC50 is less than 6.00 in assay [1] (Homo sapiens), 5.70 to 6.30 in assay [2] and greater than 7.00 in assay [3].

Regarding `Cc1ccc(S(=O)(=O)NC23CCC(c4cnco4)(CC2)OC3)cc1-c1cnc2c(N)ncnn12` [Example 440, 3-(4-Aminoimidazo[1,2-f][1,2,4]triazin-7-yl)-4-methyl-N-(1-(oxazol-5-yl)-2-oxabicyclo[2.2.2]octan-4-yl)benzenesulfonamide trifluoroacetate salt], the values for the pIC50 in assay [1] (Homo sapiens), in assay [2] and in assay [3] were 6.30 to 7.00, 6.30 to 7.00 and greater than 7.00, respectively.

Regarding “5-(4-Amino-2-(trifluoromethyl)imidazo[1,2- f][1,2,4]triazin-7-yl)-2-chloro-N-(4- (hydroxymethyl)bicyclo[1.1.1]hexan-1- yl)benzenesulfonamide [Example 419]”, the pIC50 in assay [1] was less than 6.00; in assay [3], greater than 7.00.

In the case of `N#Cc1ccc(S(=O)(=O)NC23CCC(C#N)(C2)C3)cc1-c1cnc2c(N)ncnn12` [Example 260, 3-(4-Aminoimidazo[2,1-f][1,2,4]triazin-7-yl)-4-cyano-N-(4-cyanobicyclo[2.1.1]hexan-1-yl)benzenesulfonamide trifluoroacetate salt], the pIC50 is 5.70 to 6.30 in assay [2] and greater than 7.00 in assay [3].

In the case of `Cc1ccc(S(=O)(=O)N2CC(C)OCC2(C)C)cc1-c1cnc2c(N)ncnn12` (stereo not drawn) [Example 158, 7-(2-methyl-5-((2,5,5-trimethylmorpholino)sulfonyl)phenyl)imidazo[2,1-f][1,2,4]triazin-4-amine], the pIC50 in assay [2] was 5.70 to 6.30; in assay [3], greater than 7.00.
